In publication PMC6009907, “Synthesis, characterization and in vitro inhibition of metal complexes of pyrazole based sulfonamide on human erythrocyte carbonic anhydrase isozymes I and II” (Journal of Enzyme Inhibition and Medicinal Chemistry, 2017) one finds IC50 and Ki data, which are given here for 1 compound.

Holding throughout (assay type): biochemical
Experiment [1] deals with T1, hCA-I (Homo sapiens, UniProt P00915).
T1 construct: Purification of isoenzymes hCA-I and hCA-II from human erythrocytes; from tissue; host or cells: human erythrocytes (blood)
Kind of experiment: CO2-hydratase activity assay (Wilbur and Anderson), hCA-I. As to conditions: hCA-I purified from human erythrocytes; CO2 hydration. As for the experimental part:
(§1) In order to purify hCA-I and hCA-II isoenzymes, first, human blood was centrifuged at 1500 rpm for 20 min, and after the removal of the plasma, the erythrocytes were washed with an isotonic solution (0.9% NaCl). After that, the erythrocytes were lysed with 1.5 volume of ice-cold water. The lysate was centrifuged at 20 000 rpm for 30 min to remove cell membranes and non-lysed cells. […] After extensive washing with 25 mM tris–HCl/22 mM Na2SO4 (pH 8.7), the hCA-I and hCA-II isoenzymes were eluted with 1.0 M NaCl/25 mM Na2HPO4 (pH 6.3) and 0.1 M CH3COONa/0.5 M NaClO4 (pH 5.6).[45]^,[46] The amount of purified protein was estimated by the Bradford method[47] and SDS-PAGE was carried out to determine whether the elute containing the enzyme[48] (Supplemental Figure 1).
(§2) Carbonic anhydrase activity was assayed by following the hydration of CO2 according to the method described by Wilbur and Anderson.[49] CO2-hydratase activity as an enzyme unit (EU) was calculated by using the equation ((t0−tc)/tc) where t0 and tc are the times for pH change of the nonenzymatic and the enzymatic reactions, respectively.

Experiment [2] deals with T2, hCA-II (Homo sapiens, UniProt P00918).
T2 construct: Purification of isoenzymes hCA-I and hCA-II from human erythrocytes; from tissue; host or cells: human erythrocytes (blood)
Kind of experiment: CO2-hydratase activity assay (Wilbur and Anderson), hCA-II. The note with it: hCA-II purified from human erythrocytes; CO2 hydration. As for the experimental part: as §1, §2

In experiment [3] the target is T1, hCA-I. Kind of experiment: Determination of Ki values (esterase activity, Lineweaver–Burk), hCA-I. The note with it: five substrate concentrations, Lineweaver–Burk plot. As for the experimental part: as §1
(§3) The method for determination of Ki values is described elsewhere.[52–56] […] Regression analysis graphs were drawn by plotting inhibitor concentrations versus enzyme activity by using Microsoft Excel Program.

Experiment [4] has as its target T1, hCA-I. Kind of experiment: Esterase activity assay (4-nitrophenylacetate, 348 nm), hCA-I. The note with it: hCA-I purified from human erythrocytes, 25 °C, pH 7.4. Here is the method:
as §1
(§4) The enzymatic reaction, in a total volume of 3.0 mL, contained 1.4 mL of 0.05 M tris–SO4 buffer (pH 7.4), 1 mL of 3 mM 4-nitrophenylacetate, 0.5 mL H2O and 0.1 mL enzyme solution. A reference measurement was obtained by preparing the same cuvette without enzyme solution.
as §3

The target in experiment [5] is T2, hCA-II. Kind of experiment: Esterase activity assay (4-nitrophenylacetate, 348 nm), hCA-II. The note with it: hCA-II purified from human erythrocytes, 25 °C, pH 7.4. As for the experimental part:
as §1, §4, §3

Experiment [6] deals with T2, hCA-II. Kind of experiment: Determination of Ki values (esterase activity, Lineweaver–Burk), hCA-II. As to conditions: five substrate concentrations, Lineweaver–Burk plot. As for the experimental part: as §1, §3

T1 sequence (P00915 whole entry): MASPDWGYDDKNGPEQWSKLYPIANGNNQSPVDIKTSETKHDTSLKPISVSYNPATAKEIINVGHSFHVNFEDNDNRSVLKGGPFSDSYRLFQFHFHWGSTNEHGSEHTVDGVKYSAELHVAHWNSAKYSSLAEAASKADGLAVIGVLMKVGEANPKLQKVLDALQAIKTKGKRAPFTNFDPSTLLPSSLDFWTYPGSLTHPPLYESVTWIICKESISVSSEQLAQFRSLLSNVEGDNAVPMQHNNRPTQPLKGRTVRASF

A word on the IC50: it is the midpoint of a concentration-inhibition curve. By Ki is commonly meant the equilibrium dissociation constant of an inhibitor or competing ligand from its target. High values mean weaker binding, low ones tighter binding. As for `CCOC(=O)c1c(C(=O)Nc2nnc(S(N)(=O)=O)s2)nn(-c2cccc([N+](=O)[O-])c2)c1-c1ccccc1` [compound 1, ethyl 1-(3-nitrophenyl)-5-phenyl-3-((5-sulfamoyl-1,3,4-thiadiazol-2-yl)carbamoyl)-1H-pyrazole-4-carboxylate], the IC50 came out at 1400 nM at hCA-I [1], 900 nM against hCA-II [2], 2800 nM against hCA-I [4] and 5.6 µM at hCA-II [5]. The values for the Ki on hCA-I [3] and at hCA-II [6] were 1100 nM and 5.3 µM, respectively.
